Experimental data reported in paper PMC7044277 (Nature Communications, 2020).
Where “and” joins values, the source holds several entries; their conditions need not be identical. Equal entries are not always repeated.

Experiments:
Assay type in all cases: cell-based
Design in all cases: GPCRome screening signal at PTGIR / GPCRome screening signal at PTH1R / GPCRome screening signal at PTH2R / GPCRome screening signal at QRFP / GPCRome screening signal at RXFP2 / GPCRome screening signal at RXFP3 / GPCRome screening signal at RXFP4 / GPCRome screening signal at S1PR2 / GPCRome screening signal at S1PR3 / GPCRome screening signal at S1PR4 / GPCRome screening signal at S1PR5 / GPCRome screening signal at SCTR / GPCRome screening signal at SSTR2 / GPCRome screening signal at SSSTR / GPCRome screening signal at SSTR4 / GPCRome screening signal at SSTR5 / GPCRome screening signal at SUCNR1 / GPCRome screening signal at TA1 / GPCRome screening signal at TAAR2 / GPCRome screening signal at TAAR5 / GPCRome screening signal at TAAR6 / GPCRome screening signal at TAAR8 / GPCRome screening signal at TACR1 / GPCRome screening signal at TACR2 / GPCRome screening signal at TACR3 / GPCRome screening signal at TBXA2R / GPCRome screening signal at TSHR / GPCRome screening signal at UTS2R / GPCRome screening signal at VIPR2 / GPCRome screening signal at GPR68 no V2 Tail / GPCRome screening signal at GRM2 / GPCRome screening signal at GRM3: reference not given here
320 non-olfactory GPCRs [1] = target: T1, 320 non-olfactory GPCRs (Homo sapiens, UniProt P41587); details: receptor VIPR2
T1 construct: expressed in transfected cells; host or cells: HTLA cells
T1 sequence (P41587 24-438): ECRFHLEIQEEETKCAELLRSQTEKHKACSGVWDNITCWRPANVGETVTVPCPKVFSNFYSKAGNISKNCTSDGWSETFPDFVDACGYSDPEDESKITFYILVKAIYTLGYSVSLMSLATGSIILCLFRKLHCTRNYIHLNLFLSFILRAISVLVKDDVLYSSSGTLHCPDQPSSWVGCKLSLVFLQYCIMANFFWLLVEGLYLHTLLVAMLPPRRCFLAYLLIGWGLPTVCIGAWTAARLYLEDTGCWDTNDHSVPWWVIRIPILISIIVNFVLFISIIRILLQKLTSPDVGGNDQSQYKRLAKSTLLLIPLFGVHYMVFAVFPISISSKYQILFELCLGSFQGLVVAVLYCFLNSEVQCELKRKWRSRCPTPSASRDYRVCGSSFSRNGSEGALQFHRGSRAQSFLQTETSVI

320 non-olfactory GPCRs [2] = target: T2, 320 non-olfactory GPCRs (Homo sapiens, UniProt Q96RI8); details: receptor TAAR6
T2 construct: expressed in transfected cells; host or cells: HTLA cells
T2 sequence (Q96RI8 whole entry): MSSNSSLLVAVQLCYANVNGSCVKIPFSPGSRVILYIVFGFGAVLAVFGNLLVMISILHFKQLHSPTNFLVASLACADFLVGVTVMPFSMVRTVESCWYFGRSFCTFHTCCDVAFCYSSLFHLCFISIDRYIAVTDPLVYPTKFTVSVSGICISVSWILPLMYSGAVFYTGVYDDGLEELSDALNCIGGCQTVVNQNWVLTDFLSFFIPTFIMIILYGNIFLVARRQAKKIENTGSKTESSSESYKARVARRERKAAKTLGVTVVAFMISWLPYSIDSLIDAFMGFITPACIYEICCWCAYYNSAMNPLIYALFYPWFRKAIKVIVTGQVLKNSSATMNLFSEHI

320 non-olfactory GPCRs [3] = target: 320 non-olfactory GPCRs (Homo sapiens, UniProt P21453); details: receptor S1PR1
Sequence of 320 non-olfactory GPCRs (Homo sapiens, UniProt P21453) (P21453 whole entry): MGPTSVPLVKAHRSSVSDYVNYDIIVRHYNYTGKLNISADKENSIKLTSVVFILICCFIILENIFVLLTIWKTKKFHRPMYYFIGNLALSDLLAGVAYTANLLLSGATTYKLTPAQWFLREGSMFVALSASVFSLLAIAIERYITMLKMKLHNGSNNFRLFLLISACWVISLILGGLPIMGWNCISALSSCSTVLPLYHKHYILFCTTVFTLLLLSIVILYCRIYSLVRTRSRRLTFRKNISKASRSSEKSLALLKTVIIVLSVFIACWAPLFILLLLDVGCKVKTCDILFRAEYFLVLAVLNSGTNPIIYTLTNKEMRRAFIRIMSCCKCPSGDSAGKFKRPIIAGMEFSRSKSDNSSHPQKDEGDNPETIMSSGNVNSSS

320 non-olfactory GPCRs [4] = target: T3, 320 non-olfactory GPCRs (Homo sapiens, UniProt Q9H1C0); details: receptor GPR92
T3 construct: expressed in transfected cells; host or cells: HTLA cells
T3 sequence (Q9H1C0 whole entry): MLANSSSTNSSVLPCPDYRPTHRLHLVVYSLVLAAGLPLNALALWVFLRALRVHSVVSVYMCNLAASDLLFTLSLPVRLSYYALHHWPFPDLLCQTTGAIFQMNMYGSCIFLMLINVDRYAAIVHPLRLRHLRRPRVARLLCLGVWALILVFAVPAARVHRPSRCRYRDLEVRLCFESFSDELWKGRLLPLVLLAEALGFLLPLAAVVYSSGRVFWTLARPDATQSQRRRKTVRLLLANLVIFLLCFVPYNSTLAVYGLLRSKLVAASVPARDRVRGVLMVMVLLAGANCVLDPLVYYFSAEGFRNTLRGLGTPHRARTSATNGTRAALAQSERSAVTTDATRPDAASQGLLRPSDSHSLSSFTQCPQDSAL

[5] = Fig_5f, single replicate values
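Throughout, for GPCRome agonism screen response: fold over basal response of each receptor without drug.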

For `CCOc1cccc2cc(C(C)NCC3(O)CCCCC3)oc12` (centres unmarked) [O4LE6], the “GPCRome agonism screen response” value (320 non-olfactory GPCRs [1]; replicate values, Fig_4g) was 0.366 and 1.433 and 1.331 and 0.8644, the “GPCRome agonism screen response” value (320 non-olfactory GPCRs [2]; replicate values, Fig_4g) was 1.686 and 0.9412 and 0.4865 and 0.01025 and the “GPCRome agonism screen response” value (320 non-olfactory GPCRs [3]; replicate values, Fig_4g) was 2.353 and 1.219 and 1.439 and 0.7423. The “GPCRome agonism screen response” value (320 non-olfactory GPCRs [4]; replicate values, Fig_4g) was 1.1613 and 0.7262 and 0.6248 and 2.678.
`CCOc1ccccc1CCC(C)NCC1(O)CCCCC1.Cl` (racemic) [Fig_5f] was tested, and the “GPCRome screening signal at VIPR2” value (320 non-olfactory GPCRs [1]; [5]) was 0.8302 and 1.005 and 0.9541 and 0.5143, the “GPCRome screening signal at TAAR6” value (320 non-olfactory GPCRs [2]; [5]) was 0.9086 and 0.7284 and 0.9687 and 0.7288 and the “GPCRome screening signal at S1PR1” value (320 non-olfactory GPCRs [3]; [5]) was 0.7005 and 1.113 and 2.609 and 1.363. For the same molecule, the “GPCRome screening signal at GPR92” value (320 non-olfactory GPCRs [4]; [5]) was 0.9709 and 0.5547 and 0.5858 and 0.9422.
